Test results taken from ChEMBL document CHEMBL3885881, “DrugMatrix”.

Species: Rattus norvegicus
Assay: DrugMatrix - Regimen: Daily Repeat
Type: toxicity, organism-based, Sprague-Dawley
Design: regimen Daily Repeat, gender Male, age 6-8 weeks
Conditions: in vivo, po, 620 mg/kg, route oral GAVAGE, dose level High, vehicle 100 % WATER; for BASOPHIL / EOSINOPHIL / ERYTHROCYTE COUNT / HEMATOCRIT / HEMOGLOBIN / LEUKOCYTE COUNT / LYMPHOCYTE / MEAN CORPUSCULAR HEMOGLOBIN / MEAN CORPUSCULAR HEMOGLOBIN CONCENTRATION / MEAN CORPUSCULAR VOLUME / MONOCYTE / NEUTROPHIL / PLATELET COUNT: tissue Blood; for ALANINE AMINOTRANSFERASE / ALBUMIN / ALKALINE PHOSPHATASE / ASPARTATE AMINOTRANSFERASE / BLOOD UREA NITROGEN / CARBON DIOXIDE / CHLORIDE / CHOLESTEROL / CREATINE PHOSPHOKINASE / CREATININE / GLUCOSE / LACTATE DEHYDROGENASE / LIPASE / PHOSPHORUS / POTASSIUM / SODIUM / TOTAL BILIRUBIN / TOTAL PROTEIN / URIC ACID: tissue Plasma

For OCCNCCO [DIETHANOLAMINE], the BASOPHIL (72 h, time 3 day) was 0.67%, the EOSINOPHIL (72 h, time 3 day) was 0.37% and the “ERYTHROCYTE COUNT” value (72 h, time 3 day) was 6.14 x10E6/uL. For the same compound, the HEMATOCRIT (72 h, time 3 day) was 41.37%, the HEMOGLOBIN (72 h, time 3 day) was 13.23 G/DL and the “LEUKOCYTE COUNT” value (72 h, time 3 day) was 8.17 x10E3/uL. The LYMPHOCYTE (72 h, time 3 day) was 87.67%, the “MEAN CORPUSCULAR HEMOGLOBIN” value (72 h, time 3 day) was 21.6 pg and the “MEAN CORPUSCULAR HEMOGLOBIN CONCENTRATION” value (72 h, time 3 day) was 32.1 G/DL. The “MEAN CORPUSCULAR VOLUME” value (72 h, time 3 day) was 67.4 fL, the MONOCYTE (72 h, time 3 day) was 2.03% and the NEUTROPHIL (72 h, time 3 day) was 6.8%. The “PLATELET COUNT” value (72 h, time 3 day) was 1227 x10E3/uL, the “ALANINE AMINOTRANSFERASE” value (72 h, time 3 day) was 45.67 u/L and the ALBUMIN (72 h, time 3 day) was 4.33 G/DL. For the same compound, the “ALKALINE PHOSPHATASE” value (72 h, time 3 day) was 468 u/L, the “ASPARTATE AMINOTRANSFERASE” value (72 h, time 3 day) was 125.67 u/L and the “BLOOD UREA NITROGEN” value (72 h, time 3 day) was 18 mg/dL. The “CARBON DIOXIDE” value (72 h, time 3 day) was 24.33 mmol/L, the CHLORIDE (72 h, time 3 day) was 111 MEQ/L and the CHOLESTEROL (72 h, time 3 day) was 75 mg/dL. The “CREATINE PHOSPHOKINASE” value (72 h, time 3 day) was 164.33 u/L, the CREATININE (72 h, time 3 day) was 0.5 mg/dL and the GLUCOSE (72 h, time 3 day) was 181.67 mg/dL. For the same compound, the “LACTATE DEHYDROGENASE” value (72 h, time 3 day) was 102.67 u/L, the LIPASE (72 h, time 3 day) was 21.33 u/L and the PHOSPHORUS (72 h, time 3 day) was 13.47 mg/dL. The POTASSIUM (72 h, time 3 day) was 6.33 MEQ/L, the SODIUM (72 h, time 3 day) was 154.33 MEQ/L and the “TOTAL BILIRUBIN” value (72 h, time 3 day) was 0.3 mg/dL. The “TOTAL PROTEIN” value (72 h, time 3 day) was 6.5 G/DL, the “URIC ACID” value (72 h, time 3 day) was 2.07 mg/dL and the BASOPHIL (120 h, time 5 day) was 0.47%. The EOSINOPHIL (120 h, time 5 day) was 0.37%, the “ERYTHROCYTE COUNT” value (120 h, time 5 day) was 6.72 x10E6/uL and the HEMATOCRIT (120 h, time 5 day) was 42.63%. For the same compound, the HEMOGLOBIN (120 h, time 5 day) was 13.57 G/DL, the “LEUKOCYTE COUNT” value (120 h, time 5 day) was 7.2 x10E3/uL and the LYMPHOCYTE (120 h, time 5 day) was 85.43%. The “MEAN CORPUSCULAR HEMOGLOBIN” value (120 h, time 5 day) was 20.17 pg, the “MEAN CORPUSCULAR HEMOGLOBIN CONCENTRATION” value (120 h, time 5 day) was 31.77 G/DL and the “MEAN CORPUSCULAR VOLUME” value (120 h, time 5 day) was 63.43 fL. The MONOCYTE (120 h, time 5 day) was 2.37%, the NEUTROPHIL (120 h, time 5 day) was 9.9% and the “PLATELET COUNT” value (120 h, time 5 day) was 1342 x10E3/uL. For the same compound, the “ALANINE AMINOTRANSFERASE” value (120 h, time 5 day) was 54.33 u/L, the ALBUMIN (120 h, time 5 day) was 4.7 G/DL and the “ALKALINE PHOSPHATASE” value (120 h, time 5 day) was 407 u/L. The “ASPARTATE AMINOTRANSFERASE” value (120 h, time 5 day) was 196.33 u/L, the “BLOOD UREA NITROGEN” value (120 h, time 5 day) was 18.33 mg/dL and the “CARBON DIOXIDE” value (120 h, time 5 day) was 26 mmol/L. For the same compound, the CHLORIDE (120 h, time 5 day) was 109.33 MEQ/L, the CHOLESTEROL (120 h, time 5 day) was 82.67 mg/dL and the “CREATINE PHOSPHOKINASE” value (120 h, time 5 day) was 320.67 u/L. The CREATININE (120 h, time 5 day) was 0.33 mg/dL, the GLUCOSE (120 h, time 5 day) was 164.33 mg/dL and the “LACTATE DEHYDROGENASE” value (120 h, time 5 day) was 81.33 u/L. It also gave an LIPASE (120 h, time 5 day) of 24.67 u/L, a PHOSPHORUS (120 h, time 5 day) of 12.87 mg/dL and a POTASSIUM (120 h, time 5 day) of 5.67 MEQ/L. The SODIUM (120 h, time 5 day) was 152.67 MEQ/L, the “TOTAL BILIRUBIN” value (120 h, time 5 day) was 0.4 mg/dL and the “TOTAL PROTEIN” value (120 h, time 5 day) was 7.07 G/DL. The “URIC ACID” value (120 h, time 5 day) was 2.27 mg/dL, the BASOPHIL ([…], time 14 day) was 1.68% and the EOSINOPHIL ([…], time 14 day) was 0.28%. For the same compound, the “ERYTHROCYTE COUNT” value ([…], time 14 day) was 6.33 x10E6/uL, the HEMATOCRIT ([…], time 14 day) was 37.84% and the HEMOGLOBIN ([…], time 14 day) was 12.58 G/DL. The “LEUKOCYTE COUNT” value ([…], time 14 day) was 17.16 x10E3/uL, the LYMPHOCYTE ([…], time 14 day) was 79.3% and the “MEAN CORPUSCULAR HEMOGLOBIN” value ([…], time 14 day) was 19.88 pg. The “MEAN CORPUSCULAR HEMOGLOBIN CONCENTRATION” value ([…], time 14 day) was 33.26 G/DL, the “MEAN CORPUSCULAR VOLUME” value ([…], time 14 day) was 59.7 fL and the MONOCYTE ([…], time 14 day) was 1.7%. The NEUTROPHIL ([…], time 14 day) was 15.34%, the “PLATELET COUNT” value ([…], time 14 day) was 590 x10E3/uL and the “ALANINE AMINOTRANSFERASE” value ([…], time 14 day) was 40.2 u/L. The ALBUMIN ([…], time 14 day) was 4.34 G/DL, the “ALKALINE PHOSPHATASE” value ([…], time 14 day) was 449 u/L and the “ASPARTATE AMINOTRANSFERASE” value ([…], time 14 day) was 305.8 u/L. The “BLOOD UREA NITROGEN” value ([…], time 14 day) was 32.2 mg/dL, the “CARBON DIOXIDE” value ([…], time 14 day) was 27.6 mmol/L and the CHLORIDE ([…], time 14 day) was 106 MEQ/L. For the same compound, the CHOLESTEROL ([…], time 14 day) was 46.6 mg/dL, the “CREATINE PHOSPHOKINASE” value ([…], time 14 day) was 123.4 u/L and the CREATININE ([…], time 14 day) was 0.56 mg/dL. For the same compound, the GLUCOSE ([…], time 14 day) was 162 mg/dL, the “LACTATE DEHYDROGENASE” value ([…], time 14 day) was 58 u/L and the LIPASE ([…], time 14 day) was 19 u/L. It also gave a PHOSPHORUS ([…], time 14 day) of 12.6 mg/dL, a POTASSIUM ([…], time 14 day) of 5.54 MEQ/L and an SODIUM ([…], time 14 day) of 151 MEQ/L. The “TOTAL BILIRUBIN” value ([…], time 14 day) was 0.34 mg/dL, the “TOTAL PROTEIN” value ([…], time 14 day) was 6.32 G/DL and the “URIC ACID” value ([…], time 14 day) was 0.68 mg/dL.
